Laboratory results reported in PMC4031276 (Molecular pharmaceutics, 2013).
Like-named read-outs stand apart in the source and are kept apart here. Marks after values point to notes of the source that are not given here.

Legend:
hASBT [1] = target: T1, hASBT (Homo sapiens, UniProt Q12908); conditions: native glycine conjugates, for comparison; cited from earlier work
T1 sequence (Q12908 1-348): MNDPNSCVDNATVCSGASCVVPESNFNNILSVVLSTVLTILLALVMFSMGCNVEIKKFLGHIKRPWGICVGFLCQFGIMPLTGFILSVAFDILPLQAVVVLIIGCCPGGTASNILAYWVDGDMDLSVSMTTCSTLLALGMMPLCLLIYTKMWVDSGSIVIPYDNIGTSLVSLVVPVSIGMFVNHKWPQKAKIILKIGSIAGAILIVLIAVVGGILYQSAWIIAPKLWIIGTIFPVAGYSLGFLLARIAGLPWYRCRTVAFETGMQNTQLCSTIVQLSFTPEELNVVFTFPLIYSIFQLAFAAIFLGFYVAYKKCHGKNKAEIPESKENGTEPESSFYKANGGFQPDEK

hASBT-MDCK monolayer [2] = conditions: passive permeability of native glycine conjugates, for comparison; cited from earlier work
hASBT [3] = target: T1, hASBT; conditions: read-out: Ki (μM ±SEM); glycine conjugates of native bile acids, provided for comparison; cited from earlier work
hASBT [4] = target: T1, hASBT; assay: hASBT-mediated active uptake into hASBT-MDCK monolayers; assay type: cell-based; conditions: for Kt fold higher than Ki: Kt vs Ki; for Kt (μM ±SEM): Michaelis-Menten transport constant, gly-iBA 1–200 μM, 10 min, 37 °C; for fold lower Jmax than corresponding native BA: TCA-normalized Jmax; for Relative Jmax (% TCA Jmax ±SEM): gly-iBAs, normalised to TCA Jmax
hASBT [5] = target: T1, hASBT; assay: cis-inhibition of taurocholate; conditions: for fold weaker inhibitory potency (Ki) than corresponding native BA: 3-hydroxyl epimerization (α to β)
hASBT-MDCK monolayer [6] = conditions: for Pp (cm/s ± SEM x 10^6): passive permeability of gly-iBAs, sodium-free buffer
[7] = maximum substrate flux, mean ± SEM
[8] = read-out: Ki (μM ±SEM), glycine conjugates of iso-bile acids, TCA 2.5 μM, 10 min, 37 °C, pH 6.8, mean (SEM)

| SMILES | Relative Jmax (% TCA Jmax ±SEM) (hASBT [1]) | Pp (cm/s ± SEM x 10^6) (hASBT-MDCK monolayer [2]) | Ki (hASBT [3]) [µM] | Absolute Jmax (hASBT [4]; [7]) [pmol/cm^2/s] | Ki (hASBT [5]; [8]) [µM] | Pp (cm/s ± SEM x 10^6) (hASBT-MDCK monolayer [6]) | also measured |
| --- | --- | --- | --- | --- | --- | --- | --- |
| C[C@H](CCC(=O)NCC(=O)O)[C@H]1CC[C@H]2[C@@H]3[C@H](O)C[C@@H]4C[C@H](O)CC[C@]4(C)[C@H]3C[C@H](O)[C@]12C [Gly-CA] | 152 (24) % TCA Jmax | 0.220 (0.157) cm/s x 10^6 | 7.53 |  |  |  |  |
| C[C@H](CCC(=O)NCC(=O)O)[C@H]1CC[C@H]2[C@@H]3[C@H](O)C[C@@H]4C[C@H](O)CC[C@]4(C)[C@H]3CC[C@]12C [Gly-CDCA] | 432 (58) % TCA Jmax | 0.414 (0.201) cm/s x 10^6 | 0.992 |  |  |  |  |
| C[C@H](CCC(=O)NCC(=O)O)[C@H]1CC[C@H]2[C@@H]3CC[C@@H]4C[C@H](O)CC[C@]4(C)[C@H]3C[C@H](O)[C@]12C [Gly-DCA] | 349 (47) % TCA Jmax | 0.520 (0.162) cm/s x 10^6 | 3.22 |  |  |  |  |
| C[C@H](CCC(=O)NCC(=O)O)[C@H]1CC[C@H]2[C@@H]3CC[C@@H]4C[C@H](O)CC[C@]4(C)[C@H]3CC[C@]12C [Gly-LCA] | 405 (64) % TCA Jmax | 0.865 (0.780) cm/s x 10^6 | 0.427 |  |  |  |  |
| C[C@H](CCC(=O)NCC(=O)O)[C@H]1CC[C@H]2[C@@H]3[C@@H](O)C[C@@H]4C[C@H](O)CC[C@]4(C)[C@H]3CC[C@]12C [Gly-UDCA] | 226 (36) % TCA Jmax | 1.01 (0.13) cm/s x 10^6 | 3.41 |  |  |  |  |
| C[C@H](CCC(=O)NCCS(=O)(=O)O)[C@H]1CC[C@H]2[C@@H]3[C@H](O)C[C@@H]4C[C@H](O)CC[C@]4(C)[C@H]3C[C@H](O)[C@]12C [TCA, Taurocholic acid, reference compound] |  |  |  |  |  |  | Absolute Jmax (hASBT [4]): c Absolute Jmax (pmol/cm^2/s) for each gly-iBA were 0.017 ± 0.006 (gly-iLCA), 0.065 ± 0.004 (gly-iCDCA), 0.010 ± 0.003 (gly-iDCA), 0.038 ± 0.006 (gly-iUDCA), and 0.166 ± 0.024 (gly-iCA) respectively. TCA Pp and Jmax were 1.56 x 10^−6 cm/s and 0.271 ± 0.020 pmol/cm^2/s, respectively. |
| C[C@H](CCC(=O)NCC(=O)O)[C@H]1CC[C@H]2[C@@H]3[C@H](O)C[C@@H]4C[C@@H](O)CC[C@]4(C)[C@H]3C[C@H](O)[C@]12C [gly-iCA, 3β,7α, 12α-trihydroxy-5β-cholanic acid glycine amide] |  |  |  | 0.166 ± 0.024 | 23.3 | 0.740 (0.120) cm/s x 10^6 | Kt fold higher than Ki (hASBT [4]): about 10 fold; Kt (μM ±SEM) (hASBT [4]): 163 (37) μM; fold lower Jmax than corresponding native BA (hASBT [4]): 3 fold; Relative Jmax (% TCA Jmax ±SEM) (hASBT [4]): 61.2 (9.9) % TCA Jmax |
| C[C@H](CCC(=O)NCC(=O)O)[C@H]1CC[C@H]2[C@@H]3[C@H](O)C[C@@H]4C[C@@H](O)CC[C@]4(C)[C@H]3CC[C@]12C [gly-iCDCA, 3β, 7α-dihydroxy-5β-cholanic acid glycine amide] |  |  |  | 0.065 ± 0.004 | 4.53 | 0.058 (0.07) cm/s x 10^6 | Kt fold higher than Ki (hASBT [4]): about 10 fold; Kt (μM ±SEM) (hASBT [4]): 59.5 ± 8.8 µM; fold lower Jmax than corresponding native BA (hASBT [4]): 18 fold; Relative Jmax (% TCA Jmax ±SEM) (hASBT [4]): 23.9 (2.3) % TCA Jmax; fold weaker transport affinity (Kt) than native counterpart (hASBT [4]; vs gly-CDCA): 90 fold |
| C[C@H](CCC(=O)NCC(=O)O)[C@H]1CC[C@H]2[C@@H]3CC[C@@H]4C[C@@H](O)CC[C@]4(C)[C@H]3C[C@H](O)[C@]12C [gly-iDCA, 3β, 12α-dihydroxy-5β-cholanic acid glycine amide] |  |  |  | 0.010 ± 0.003 | 12.4 | 0.730 (0.020) cm/s x 10^6 | Kt (μM ±SEM) (hASBT [4]): 149 (75) ^ns μM; Relative Jmax (% TCA Jmax ±SEM) (hASBT [4]): 3.68 (1.14) ^e % TCA Jmax |
| C[C@H](CCC(=O)NCC(=O)O)[C@H]1CC[C@H]2[C@@H]3CC[C@@H]4C[C@@H](O)CC[C@]4(C)[C@H]3CC[C@]12C [gly-iLCA, 3β-hydroxy-5β-cholanic acid glycine amide] |  |  |  | 0.017 ± 0.006 | 5.07 | 16.6 (0.8) cm/s x 10^6 | Estimate for Kt (hASBT [4]; estimate, not determinable due to high passive permeability): 6.82 (4.98) μM; fold weaker inhibitory potency (Ki) than corresponding native BA (hASBT [5]): 12 fold; Pp fold that of native counterpart (hASBT-MDCK monolayer [6]; vs gly-LCA): 20 fold |
| C[C@H](CCC(=O)NCC(=O)O)[C@H]1CC[C@H]2[C@@H]3[C@@H](O)C[C@@H]4C[C@@H](O)CC[C@]4(C)[C@H]3CC[C@]12C [gly-iUDCA, 3β,7β-dihydroxy-5β-cholanic acid glycine amide] |  |  |  | 0.038 ± 0.006 | 7.66 | 0.690 (0.090) cm/s x 10^6 | Kt fold higher than Ki (hASBT [4]): about 10 fold; Kt (μM ±SEM) (hASBT [4]): 75.3 (22.1) μM; fold lower Jmax than corresponding native BA (hASBT [4]): 16 fold; Relative Jmax (% TCA Jmax ±SEM) (hASBT [4]): 14.0 (2.4) % TCA Jmax |
| C[C@H](CCC(=O)O)[C@H]1CC[C@H]2[C@@H]3[C@H](O)C[C@@H]4C[C@@H](O)CC[C@]4(C)[C@H]3CC[C@]12C [iCDCA, 3β, 7α-dihydroxy-5β-cholanic acid] |  |  |  |  |  |  | Ki (hASBT [5]): 11.8 µM; fold weaker inhibitory potency (Ki) than corresponding native BA (hASBT [5]): 6 fold; fold more potent (Ki) than iUDCA (hASBT [5]; 7α-hydroxyl vs 7β-epimer): 2 fold |
| C[C@H](CCC(=O)O)[C@H]1CC[C@H]2[C@@H]3CC[C@@H]4C[C@@H](O)CC[C@]4(C)[C@H]3C[C@H](O)[C@]12C [iDCA, 3β, 12α-dihydroxy-5β-cholanic acid] |  |  |  |  |  |  | Ki (hASBT [5]): 11.4 µM |
| C[C@H](CCC(=O)O)[C@H]1CC[C@H]2[C@@H]3CC[C@@H]4C[C@@H](O)CC[C@]4(C)[C@H]3CC[C@]12C [iLCA, 3β-hydroxy-5β-cholanic acid] |  |  |  |  |  |  | Ki (hASBT [5]): 5.36 µM |
| C[C@H](CCC(=O)O)[C@H]1CC[C@H]2[C@@H]3[C@@H](O)C[C@@H]4C[C@@H](O)CC[C@]4(C)[C@H]3CC[C@]12C [iUDCA, 3β, 7β-dihydroxy-5β-cholanic acid] |  |  |  |  |  |  | Ki (hASBT [5]): 24.7 µM |
